From ChEMBL document CHEMBL2448688, “Selection and optimization of hits from a high-throughput phenotypic screen against Trypanosoma cruzi. Exported from HEOS 25-Oct-2013. See also related datasets CHEMBL3137440 and CHEMBL3137386”
Converted amounts (≈) assume the structure as drawn. “And” between values parts separate entries of the source, which are not always exact repeats. Identical values can stand only once.

Columns and labels:
Trypanosoma cruzi [1] = test: (§1) DNDI: Chagas in Vitro; assay type: functional, organism-based, Tulahuen C4 (LacZ)
Trypanosoma cruzi [2] = test: as §1; assay type: functional, Tulahuen C4 (LacZ)
Cytochrome P450 3A4 [3] = target: T1, Cytochrome P450 3A4 (Homo sapiens, UniProt P08684); test: DNDI: Human CYP3A4 inhibition determined using 6b-hydroxylation of testosterone
[4] = (§2) DNDI: Cytotoxicity in vitro, against rat skeletal myoblast (L-6) cells; settings: L-6 cells (skeletal myoblasts), IC50
[5] = test system: Trypanosoma brucei rhodesiense; test: DNDI: HAT in Vitro; assay type: functional, organism-based, ATCC 30027
Leishmania donovani = test: DNDI: Leish macro in vitro at 10 uM; assay type: functional; settings: MHOM/ET/67/L82
[6] = DNDI: Lipophilicity (gLogD) at pH 3; settings: buffer, pH 3, logD
[7] = DNDI: Lipophilicity (gLogD) at pH 7.4; settings: buffer, pH 7.4, logD
[8] = DNDI: Solubility in 0.01M HCl at pH 2 determined by nephelometry; settings: for solubility kinetic: 0.01M HCl, pH 2, Kinetic
[9] = DNDI: Solubility in phosphate buffer at pH 6.5 determined by nephelometry; settings: for solubility kinetic: phosphate buffer, pH 6.5, Kinetic
in vitro [10] = settings: human, microsomes
in vitro [11] = settings: human, microsomes, EH
in vitro [12] = settings: human, microsomes, t (1 / 2)
Trypanosoma cruzi [13] = test: DNDI: Chagas in vivo at 20 mg/kg, 20 days 2x; assay type: functional, Tulahuen Swiss po
Trypanosoma cruzi [14] = test: DNDI: Chagas in vivo at 50 mg/kg, 20 days 1x; assay type: functional, Tulahuen Swiss po
[15] = DNDI: Protein binding in mouse plasma
[16] = DNDI: Protein binding in rat plasma; assay type: ADME, cell-free; settings: read-out: % bound (converted)
in vitro [17] = settings: mouse, microsomes
in vitro [18] = settings: mouse, microsomes; remark: listed apart in the source
in vitro [19] = settings: rat, hepatocytes
in vitro [20] = settings: rat, microsomes
in vitro [21] = settings: rat, microsomes; remark: listed apart in the source
[22] = (§3) DNDI: Stability, 4 hour; assay type: ADME, tissue-based; settings: mouse, blood
[23] = as §3; assay type: ADME, cell-free; settings: mouse, plasma
Cytochrome P450 3A4 [24] = target: T1, Cytochrome P450 3A4; test: DNDI: CYP Inhibition; assay type: ADME
L6 = test: as §2; settings: L-6 cells (skeletal myoblasts)
[25] = human, microsomes
[26] = human, microsomes; remark: listed apart in the source
[27] = human, microsomes; remark: listed apart in the source
[28] = DNDI: Metabolism; assay type: ADME, Microsome; settings: rat, microsomes
in vitro [29] = settings: rat, microsomes; remark: listed apart in the source
CYP3A4 [30] = target: T2, CYP3A4 (Homo sapiens, UniProt P08684); test: DNDI: Human CYP3A4 inhibition at 1 uM determined using 6b-hydroxylation of testosterone; settings: probe testosterone (6b-hydroxylation)
CYP3A4 [31] = target: T2, CYP3A4; test: DNDI: Human CYP3A4 inhibition at 10 uM determined using 6b-hydroxylation of testosterone; settings: probe testosterone (6b-hydroxylation)
in vitro [32] = settings: mouse, microsomes; remark: listed apart in the source
[33] = Trypanosoma cruzi, Tulahuen C4 (LacZ)

T1 sequence (P08684 whole entry): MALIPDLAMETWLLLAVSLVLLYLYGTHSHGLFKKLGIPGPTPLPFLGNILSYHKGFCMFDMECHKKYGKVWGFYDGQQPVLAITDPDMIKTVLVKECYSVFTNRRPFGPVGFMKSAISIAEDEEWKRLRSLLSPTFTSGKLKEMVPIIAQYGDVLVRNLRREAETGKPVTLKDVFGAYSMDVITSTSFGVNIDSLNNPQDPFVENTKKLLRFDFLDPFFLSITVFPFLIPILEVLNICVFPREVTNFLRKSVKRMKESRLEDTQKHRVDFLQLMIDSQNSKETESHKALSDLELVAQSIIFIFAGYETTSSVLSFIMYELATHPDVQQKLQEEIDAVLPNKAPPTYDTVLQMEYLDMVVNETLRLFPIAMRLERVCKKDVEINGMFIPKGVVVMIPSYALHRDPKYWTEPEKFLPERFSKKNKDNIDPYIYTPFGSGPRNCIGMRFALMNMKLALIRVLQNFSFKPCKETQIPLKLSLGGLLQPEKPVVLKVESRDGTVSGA
T2 sequence (P08684 whole entry): as above

Row | Structure (SMILES) | IC50 (Trypanosoma cruzi [1]; [33]) | IC90 (Trypanosoma cruzi [2]; [33]) | IC50 (Cytochrome P450 3A4 [3]) | IC50 [4] | IC50 ([5]; Trypanosoma brucei, ATCC 30027) | chromatographic logD [6] | chromatographic logD [7] | solubility kinetic [8] | solubility kinetic [9] | microsomal CLint (in vitro [10]) | hepatic extraction ratio (in vitro [11]) | half-life (in vitro [12]) | also measured
1 | N#Cc1ccc(-n2ccnc2)c(NC(=O)c2cnc(-c3ccccc3)nc2)c1 | > 100 nM | > 100 nM | > 20000 nM | > 100000 nM | > 10000 nM | 1.9 | 2.7 | 50 µg/mL (≈ 136 µM) | 3.1 µg/mL (≈ 8.46 µM) | 15 µL/min/mg | 0.46 | 113 min | IC50 (Trypanosoma cruzi [1]): 84 nM; inhibition at 10 µM (Leishmania donovani): 53.5%
2 | CS(=O)(=O)c1ccc(-n2ccnc2)c(NC(=O)c2cnc(-c3ccccc3)nc2)c1 | 90 nM | > 100 nM | > 20000 nM | > 100000 nM | > 10000 nM | 1.7 | 2.3 | 50 µg/mL (≈ 119 µM) | 12.5 µg/mL (≈ 29.8 µM) | < 7 µL/min/mg | < 0.28 | > 250 min | inhibition at 10 µM (Leishmania donovani): 48.2%
3 | CO/N=C(\C)c1ccc(-n2ccnc2)c(NC(=O)c2cnc(-c3ccccc3)nc2)c1 | – | – | – | > 100000 nM | > 10000 nM | 2.6 | 3.4 | > 100 µg/mL | < 1.6 µg/mL | 24 µL/min/mg | – | 73 min | IC50 (Trypanosoma cruzi [1]): 3 nM and 8 nM; IC90 (Trypanosoma cruzi [2]): 10.5 nM and 25.9 nM; PCR cure rate (Trypanosoma cruzi [13]): 0%; Parasitemia clearance after immunosuppression (Trypanosoma cruzi [13]): 60%; Parasitemia clearance after treatment (Trypanosoma cruzi [13]): 80%; PCR cure rate (Trypanosoma cruzi [14]): 0%; Parasitemia clearance after immunosuppression (Trypanosoma cruzi [14]): 0%; Parasitemia clearance after treatment (Trypanosoma cruzi [14]): 60%; inhibition at 10 µM (Leishmania donovani): 47.3%; fraction unbound [15]: 0.028; fraction unbound [16]: 0.014; microsomal CLint (in vitro [17]): 34 µL/min/mg; half-life (in vitro [18]): 52 min; CLhep predicted (in vitro [19]): 26.7 mL/min/kg; half-life (in vitro [20]): 38 min; microsomal CLint (in vitro [21]): 46 µL/min/mg
4 | CCOC(=O)c1ccc(-n2ccnc2)c(NC(=O)c2cnc(-c3ccccc3)nc2)c1 | 3 nM | 37 nM | > 20000 nM | > 100000 nM | > 10000 nM | – | – | – | – | 11 µL/min/mg | 0.38 | 160 min | remaining at 4 h [22]: 0.4%; remaining at 4 h [23]: 1.8%
5 | OC(COc1ccc2cc(Br)ccc2c1)Cn1ccnc1 (centres undefined) | 30 nM | 193 nM | – | 65900 nM | > 10000 nM | – | – | – | – | – | – | – | IC50 (Cytochrome P450 3A4 [24]): 700 nM
6 | O=c1c2ccccc2nc(-c2ccc(-c3ccccc3)cc2)n1Cc1cccnc1 | 25.5 nM | – | – | 16100 nM | – | 3.4 | 3.8 | > 100 µg/mL | 1.6 µg/mL (≈ 4.11 µM) | 48 µL/min/mg | 0.73 | 36 min | IC50 (Trypanosoma cruzi [1]): 26 nM; IC90 (Trypanosoma cruzi [2]): 257 nM and > 100 nM; IC50 (Cytochrome P450 3A4 [24]): > 20000 nM; IC50 (L6): 19400 nM; IC50 [5]: 23300 nM and > 10000 nM
7 | CC(=O)N(Cc1cccnc1)c1ccc(-c2nc3ccccc3s2)cc1 | – | – | – | – | – | 2.18 | > 3.94 | 71 µg/mL (≈ 198 µM) | 11.9 µg/mL (≈ 33 µM) | 98.3 µL/min/mg | – | 17.6 min | CLint in vitro [25]: 72 µL/min/mg; EH [26]: 0.74 none; t (1 / 2) [27]: 24 min
8 | Cl.NCC(=O)N(Cc1cccnc1)c1cc(F)cc(-c2nc3ccccc3s2)c1 | 49 nM | 125 nM | – | > 100000 nM | – | – | 2.29 | 57.5 µg/mL | 53 µg/mL | – | – | – | Kinetic ([8]; buffer, pH 2): > 100 µg/mL; Kinetic ([9]; buffer, pH 6.5): > 100 µg/mL; CLint in vitro [25]: 66 µL/min/mg and 30 µL/min/mg; EH [26]: 0.54 none; t (1 / 2) [27]: 58 min and 26.3 min
9 | CO/N=C(\C)c1ccc(-n2ccnc2)c(NC(=O)c2ccc(-c3ccccn3)s2)c1 | – | – | 2000 nM | 65600 nM | – | 2.3 | 3.1 | > 100 µg/mL | – | 30 µL/min/mg | 0.54 | 57 min | IC90 (Trypanosoma cruzi [2]): > 100 nM and 12.8 nM; IC50 (L6): 72500 nM; CLblood [28]: 42 mL/min/kg; half-life (in vitro [20]): 27 min; microsomal CLint (in vitro [21]): 64 µL/min/mg; hepatic extraction ratio (in vitro [29]): 0.62
10 | CC(=O)N(Cc1c[nH]cn1)c1ccc(-c2nc3ccccc3s2)cc1 | 13.5 nM | 27 nM | > 10000 nM | 63400 nM | – | 1.6 | 2.1 | > 100 µg/mL | – | 14 µL/min/mg | 0.35 | 123 min | inhibition at 1 µM (CYP3A4 [30]): 0.3%; inhibition at 10 µM (CYP3A4 [31]): 28.1%; microsomal CLint (in vitro [17]): 21 µL/min/mg; hepatic extraction ratio (in vitro [32]): 0.32; half-life (in vitro [18]): 81 min
11 | CO/N=C(\C)c1ccc(-n2ccnc2)c(NC(=O)c2cnc(-c3ccccc3)cn2)c1 | 2.53 nM | 8.9 nM | – | 58700 nM | – | 2.6 | 3.9 | 25 µg/mL (≈ 60.6 µM) | < 1.6 µg/mL | 30 µL/min/mg | – | 58 min | CLblood [28]: 38 mL/min/kg; microsomal CLint (in vitro [17]): 29 µL/min/mg; half-life (in vitro [18]): 61 min; CLhep predicted (in vitro [19]): 32.3 mL/min/kg; half-life (in vitro [20]): 35 min; microsomal CLint (in vitro [21]): 50 µL/min/mg
